# According to patent US12303509B2, “Compounds for the treatment of BRAF-associated diseases and disorders” (Pfizer Inc., priority 2020, dated 2025):
# Key:
# [1] = tested on: WM3629 cells (BRAF D594G/NRAS G12D); experiment: Proliferation assay (CellTiter-Glo) in WM3629 cells; type: cell-based; conditions: 3-5 day incubation
# Protocol: The compounds of Example 13, Example 14 and Example 126 were evaluated in a proliferation assay in two mutant BRAF Class III cell lines: NCI-H1666 (BRAF^G466V) and WM3629 cells (BRAF^D594G/NRAS^G12D). NCI-H1666 cells were obtained from the American Type Culture Collection (ATCC, Rockville, MD) and WM3629 cells were obtained from Rockland Immunochemicals (Limerick, PA). Cells were maintained in RPMI growth medium containing 10% FBS.
# Cells were harvested according to standard protocols, counted, and plated onto flat-bottom, 96-well tissue culture plates (Costar #3599) at 2000-5000 cells/well in 100 μL/well of growth medium containing 10% FBS. Cells were incubated at 37° C. with 5% CO2 overnight then treated with inhibitors prepared as a 9-point, 1:3.33 fold dilution series with final compound concentrations ranging from 66 pM-10 μM and a constant DMSO concentration of 0.25%. Control wells contained 0.25% DMSO alone. After a 3-5 day incubation at 37° C., 5% CO2, cell viability was determined by adding 100 μL CellTiter-Glo® Reagent (Promega) to each well and incubated for 15 minutes at room temperature. “Day 0” controls were determined by performing CellTiter-Glo© assay on DMSO control wells at the time of compound treatment (“Day 0” control=0 POC). Luminescence was measured on a Cytation 5 plate reader (BioTek) and values were converted to POC using the following equation:
# [formula] • Where: • Xmax Average DMSO Controls • Xmin Average “Day 0” DMSO Controls • IC50 values were calculated using a 4-parameter fit in XLfit software and are shown in Table A2.
# [2] = target: full-length FLAG-tagged B-Raf(V600E) (Homo sapiens (Human), UniProt P15056, V600E); experiment: BRAF V600E enzyme assay (TR-FRET competitive displacement); type: binding; conditions: averaged IC50; TR-FRET tracer displacement, 60 min
# Procedure, shortened: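 TR-FRET tracer competition: compound (top dose 10 μM, 3-fold, 11 points) incubated 60 min at ambient temperature with FLAG-tagged full-length B-Raf(V600E) (5 nM), Eu anti-FLAG cryptate (0.5 nM) and tracer (50 nM), pH 7.4 HEPES/MgCl2 buffer. 665/615 ratio converted to percent of control; IC50 where fitted curve crosses 50 POC.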
# [3] = PK (free brain-to-free plasma ratio) (mouse); type: in vivo; conditions: male CD-1 mice, oral gavage 10 mg/kg, unbound brain-to-unbound plasma, read-out: B/P ratio (free)
# Protocol: The ability of representative compounds to penetrate the BBB in mice was determined by evaluating the unbound brain-to-unbound plasma (also referred to as free brain-to-free plasma) concentration ratio in male CD-1 mice.
# Brain compound levels were generated from oral mouse PK dosing with typical sampling times of 2, 4, 8, 12 and 24 hours post oral gavage dosing at 10 mg/kg. Brain samples were stored at −20±5° C. prior to analysis. Concentrations of test compound in mouse brain homogenate were determined by liquid chromatography tandem mass spectrometry (LC-MS/MS) following protein precipitation with acetonitrile. A 12-point calibration curve, ranging from 0.5 to 10,000 ng/mL, was prepared in duplicate. A solution of 400 μg/mL of test compound in dimethyl sulfoxide (DMSO) was serially diluted (3-fold) in 100% DMSO, and then 2.5 μL of each standard solution was added to 100 μL of naïve male CD-1 mice brain homogenate. To mimic the extraction in the standard curve, 2.5 μL of DMSO was added to all test samples. Both calibration and test brain homogenate samples were spiked with 10 μL of an IS (1 μg/mL of a structural analog). Brain homogenate was generated by adding 0.75 mL of 4:1 water:MeOH to each brain sample followed by homogenization for 1 minute with bead beater tubes a 6 m/s using an MP Fast Prep-24®. Proteins were precipitated from 100 μL of brain homogenate sample by the addition of 300 μL of acetonitrile. Samples were vortex-mixed for 5 minutes and spun in an Allegra X-12R centrifuge (Beckman Coulter, Fullerton, CA; SX4750A rotor) for 15 min at approximately 1,500×g at 4° C. A 100 μL aliquot of each supernatant was transferred via a 550 μL Personal Pipettor (Apricot Designs, Monrovia, CA) to 96-well plates and diluted 1:1 with HPLC grade water. The resulting plates were sealed with aluminum for LC-MS/MS analysis.
# Brain-to-plasma ratios were calculated using the concentration of compound measured in the brain divided by the concentration of compound measured in the plasma. Brain-to-plasma ratios were always generated from a single animal and time point. Free brain-to-free plasma ratios were calculated by multiplying the brain-to-plasma ratio by the in vitro brain homogenate free fraction divided by the in vitro plasma free fraction using the following equation: (B/P)*(Bfu/Pfu). Table C provides the free brain-to-free plasma ratios of compounds disclosed herein.
# full-length FLAG-tagged B-Raf(V600E), sequence (P15056 whole entry V600E): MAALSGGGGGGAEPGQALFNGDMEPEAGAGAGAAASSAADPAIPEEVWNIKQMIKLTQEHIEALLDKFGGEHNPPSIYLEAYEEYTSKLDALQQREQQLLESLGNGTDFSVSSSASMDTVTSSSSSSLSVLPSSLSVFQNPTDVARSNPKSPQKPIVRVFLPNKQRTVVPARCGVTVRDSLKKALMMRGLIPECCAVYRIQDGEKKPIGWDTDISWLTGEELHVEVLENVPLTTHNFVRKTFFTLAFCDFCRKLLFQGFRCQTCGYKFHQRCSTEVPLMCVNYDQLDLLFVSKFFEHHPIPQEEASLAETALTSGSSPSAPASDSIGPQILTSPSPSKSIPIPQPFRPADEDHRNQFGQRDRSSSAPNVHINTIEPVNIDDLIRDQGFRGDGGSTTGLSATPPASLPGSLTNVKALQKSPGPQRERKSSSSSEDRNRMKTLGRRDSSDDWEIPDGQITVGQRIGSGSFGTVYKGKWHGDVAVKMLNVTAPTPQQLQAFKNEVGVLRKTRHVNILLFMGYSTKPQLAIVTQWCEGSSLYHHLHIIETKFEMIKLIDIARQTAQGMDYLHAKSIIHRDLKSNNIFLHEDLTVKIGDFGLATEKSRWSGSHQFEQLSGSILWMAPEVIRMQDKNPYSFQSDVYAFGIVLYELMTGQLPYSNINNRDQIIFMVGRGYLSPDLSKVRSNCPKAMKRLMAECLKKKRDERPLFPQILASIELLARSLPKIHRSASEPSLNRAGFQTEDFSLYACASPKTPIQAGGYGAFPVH
IC50 [2],Kp [3],Structure (SMILES),IC50 [1]
6 nM,0.75 to 0.93,"Cn1cnc2ccc(Nc3c(F)ccc(NS(=O)(=O)N4CC5CC4C5)c3Cl)c(F)c2c1=O [Example 13, N-(2-chloro-4-fluoro-3-((5-fluoro-3-methyl-4-oxo-3,4-dihydroquinazolin-6-yl)amino)phenyl)-2-azabicyclo[2.1.1]hexane-2-sulfonamide]",> 10000 nM
5 nM,0.13 to 0.39,"Cn1cnc2ccc(Nc3c(F)ccc(NS(=O)(=O)N4CC[C@@H](F)C4)c3Cl)c(F)c2c1=O [Example 14, (R)-N-(2-chloro-4-fluoro-3-((5-fluoro-3-methyl-4-oxo-3,4-dihydroquinazolin-6-yl)amino)phenyl)-3-fluoropyrrolidine-1-sulfonamide]",> 10000 nM
